Laboratory results published in publication PMC5218480 (PLoS ONE, 2017).

Test system: MV-4-11 cells
Test: Gene expression microarray analysis (Affymetrix PrimeView) and GSEA
Assay type: cell-based, human
Parameters: RFU PODN (11730768_x_at) / Fold change /veh PODN (11730768_x_at) / RFU LINC00158 (11744669_a_at) / Fold change /veh LINC00158 (11744669_a_at) / RFU DUSP10 (11751237_a_at) / Fold change /veh DUSP10 (11751237_a_at) / RFU ID3 (11757404_x_at) / Fold change /veh ID3 (11757404_x_at) / RFU PLEKHG5 (11737974_s_at) / Fold change /veh PLEKHG5 (11737974_s_at) / RFU LRRC4B (11730491_at) / Fold change /veh LRRC4B (11730491_at) / RFU GIMAP4 (11747438_a_at) / Fold change /veh GIMAP4 (11747438_a_at) / RFU KRT8 (11758183_x_at) / Fold change /veh KRT8 (11758183_x_at) / RFU CNN1 (11734310_a_at) / Fold change /veh CNN1 (11734310_a_at) / RFU VPS37D (11726825_at) / Fold change /veh VPS37D (11726825_at) / RFU C10orf10 (11716522_x_at) / Fold change /veh C10orf10 (11716522_x_at) / RFU KIR2DL2 /// KIR2DL4 /// KIR2DL5A /// KIR2DL5B /// KIR2DS1 /// KIR2DS2 /// KIR2DS3 /// KIR2DS4 /// KIR3DL3 /// KIR3DL3 /// KIR3DS1 (11738374_at) / Fold change /veh KIR2DL2 /// KIR2DL4 /// KIR2DL5A /// KIR2DL5B /// KIR2DS1 /// KIR2DS2 /// KIR2DS3 /// KIR2DS4 /// KIR3DL3 /// KIR3DL3 /// KIR3DS1 (11738374_at) / RFU C1QL1 (11718748_at) / Fold change /veh C1QL1 (11718748_at) / RFU TMPRSS4 (11747572_a_at) / Fold change /veh TMPRSS4 (11747572_a_at) / RFU HAMP (11756126_x_at) / Fold change /veh HAMP (11756126_x_at) / RFU RNFT2 (11725882_a_at) / Fold change /veh RNFT2 (11725882_a_at) / RFU NR4A2 (11747474_a_at) / Fold change /veh NR4A2 (11747474_a_at) / RFU ABCC12 (11746883_a_at) / Fold change /veh ABCC12 (11746883_a_at) / RFU TMEM136 (11760407_x_at) / Fold change /veh TMEM136 (11760407_x_at) / RFU CLDN22 /// WWC2 (11732394_at) / Fold change /veh CLDN22 /// WWC2 (11732394_at) / RFU HLA-DPB1 (11760878_x_at) / Fold change /veh HLA-DPB1 (11760878_x_at) / RFU SPINT1 (11716480_a_at) / Fold change /veh SPINT1 (11716480_a_at) / RFU GAP43 (11754022_s_at) / Fold change /veh GAP43 (11754022_s_at) / RFU A4GNT (11735810_at) / Fold change /veh A4GNT (11735810_at) / RFU PRB3 (11715151_x_at) / Fold change /veh PRB3 (11715151_x_at) / RFU TUBB4B (11761932_at) / Fold change /veh TUBB4B (11761932_at) / RFU CAPN14 (11732068_a_at) / Fold change /veh CAPN14 (11732068_a_at) / RFU TMCC2 (11721928_a_at) / Fold change /veh TMCC2 (11721928_a_at) / RFU IRGQ (11745062_a_at) / Fold change /veh IRGQ (11745062_a_at) / RFU FAM174B (11720279_a_at) / Fold change /veh FAM174B (11720279_a_at) / RFU TMPRSS4 (11748680_a_at) / Fold change /veh TMPRSS4 (11748680_a_at) / RFU FAM212B (11763350_a_at) / Fold change /veh FAM212B (11763350_a_at) / RFU PLEKHG5 (11743358_a_at) / Fold change /veh PLEKHG5 (11743358_a_at) / RFU ZSCAN30 (11745921_a_at) / Fold change /veh ZSCAN30 (11745921_a_at) / RFU CMKLR1 (11741424_a_at) / Fold change /veh CMKLR1 (11741424_a_at) / RFU LOC101060620 /// MAPK8IP1 (11723275_at) / Fold change /veh LOC101060620 /// MAPK8IP1 (11723275_at) / RFU SPTSSB (11747773_x_at) / Fold change /veh SPTSSB (11747773_x_at) / RFU PRSS12 (11739890_at) / Fold change /veh PRSS12 (11739890_at) / RFU BIN1 (11741810_x_at) / Fold change /veh BIN1 (11741810_x_at) / RFU WNT11 (11732464_a_at) / Fold change /veh WNT11 (11732464_a_at) / RFU C10orf10 (11716521_a_at) / Fold change /veh C10orf10 (11716521_a_at) / RFU C5orf56 (11738089_at) / Fold change /veh C5orf56 (11738089_at) / RFU CYB561 (11721691_x_at) / Fold change /veh CYB561 (11721691_x_at) / RFU ANKRD19P (11752326_a_at) / Fold change /veh ANKRD19P (11752326_a_at) / RFU OR2T12 /// OR2T33 /// OR2T8 (11738714_s_at) / Fold change /veh OR2T12 /// OR2T33 /// OR2T8 (11738714_s_at) / RFU VCAN (11748164_a_at) / Fold change /veh VCAN (11748164_a_at) / RFU JSRP1 (11732532_at) / Fold change /veh JSRP1 (11732532_at) / RFU KRTAP10-11 (11738290_x_at) / Fold change /veh KRTAP10-11 (11738290_x_at) / RFU MYO3A (11730013_a_at) / Fold change /veh MYO3A (11730013_a_at) / RFU EBF3 (11725865_a_at) / Fold change /veh EBF3 (11725865_a_at) / RFU CAMK2N1 (11719241_x_at) / Fold change /veh CAMK2N1 (11719241_x_at) / RFU C5orf56 (11738088_a_at) / Fold change /veh C5orf56 (11738088_a_at) / RFU OLFML3 (11715873_a_at) / Fold change /veh OLFML3 (11715873_a_at) / RFU LOC100653217 /// NTM (11731650_a_at) / Fold change /veh LOC100653217 /// NTM (11731650_a_at) / RFU MAPK11 (11762145_a_at) / Fold change /veh MAPK11 (11762145_a_at) / RFU FIZ1 (11724087_x_at) / Fold change /veh FIZ1 (11724087_x_at) / RFU OASL (11726364_x_at) / Fold change /veh OASL (11726364_x_at) / RFU SOX15 (11748057_x_at) / Fold change /veh SOX15 (11748057_x_at) / RFU CD79A (11719716_a_at) / Fold change /veh CD79A (11719716_a_at) / RFU HIST1H1D (11736915_at) / Fold change /veh HIST1H1D (11736915_at) / RFU CASKIN2 (11723855_a_at) / Fold change /veh CASKIN2 (11723855_a_at) / RFU LOC730098 (11760151_x_at) / Fold change /veh LOC730098 (11760151_x_at) / RFU OR4N2 (11742367_at) / Fold change /veh OR4N2 (11742367_at) / RFU PRRT2 (11749266_a_at) / Fold change /veh PRRT2 (11749266_a_at) / RFU SNX32 (11753110_a_at) / Fold change /veh SNX32 (11753110_a_at) / RFU CDHR5 (11726645_a_at) / Fold change /veh CDHR5 (11726645_a_at) / RFU RCAN1 (11760418_a_at) / Fold change /veh RCAN1 (11760418_a_at) / RFU FAM167A (11723789_a_at) / Fold change /veh FAM167A (11723789_a_at) / RFU FAM26E (11764081_at) / Fold change /veh FAM26E (11764081_at) / RFU ISYNA1 (11749810_s_at) / Fold change /veh ISYNA1 (11749810_s_at) / RFU ACY1 (11761880_at) / Fold change /veh ACY1 (11761880_at) / RFU 11764098_at / Fold change /veh 11764098_at / RFU SAMD14 (11745864_x_at) / Fold change /veh SAMD14 (11745864_x_at) / RFU NPB (11741838_a_at) / Fold change /veh NPB (11741838_a_at) / RFU TMPRSS6 (11731388_a_at) / Fold change /veh TMPRSS6 (11731388_a_at) / RFU KRTAP10-2 (11738614_at) / Fold change /veh KRTAP10-2 (11738614_at) / RFU ARHGAP8 /// PRR5-ARHGAP8 (11727945_x_at) / Fold change /veh ARHGAP8 /// PRR5-ARHGAP8 (11727945_x_at) / RFU KRTAP5-7 /// NADSYN1 (11734609_at) / Fold change /veh KRTAP5-7 /// NADSYN1 (11734609_at) / RFU RASL12 (11751679_a_at) / Fold change /veh RASL12 (11751679_a_at) / RFU CDKN2B (11736163_a_at) / Fold change /veh CDKN2B (11736163_a_at) / RFU PRF1 (11729649_at) / Fold change /veh PRF1 (11729649_at) / RFU, ZNF638 /// ZNF638-IT1 / Fold change vs veh, ZNF638 /// ZNF638-IT1 / RFU, PANK3 / Fold change vs veh, PANK3 / RFU, SH3YL1 / Fold change vs veh, SH3YL1 / RFU, ZEB2 / Fold change vs veh, ZEB2 / RFU, NRIP1 / Fold change vs veh, NRIP1 / RFU, PTTG1IP / Fold change vs veh, PTTG1IP / RFU, CAPN2 / Fold change vs veh, CAPN2 / RFU, MED14 / Fold change vs veh, MED14 / RFU, SNORA58 / Fold change vs veh, SNORA58 / RFU, C1orf63 / Fold change vs veh, C1orf63 / RFU, LRRFIP1 / Fold change vs veh, LRRFIP1 / RFU, NDUFAF7 / Fold change vs veh, NDUFAF7 / RFU, SLC12A2 / Fold change vs veh, SLC12A2 / RFU, IBTK / Fold change vs veh, IBTK / RFU, ESF1 / Fold change vs veh, ESF1 / Fold change vs veh, TMEM50B / RFU, TAOK1 / Fold change vs veh, TAOK1 / RFU, ACBD3 / Fold change vs veh, ACBD3 / RFU, TMA16 / Fold change vs veh, TMA16 / RFU, RWDD3 / Fold change vs veh, RWDD3 / RFU, BCAT1 / Fold change vs veh, BCAT1 / RFU, EDEM3 / Fold change vs veh, EDEM3 / RFU, TMEM33 / Fold change vs veh, TMEM33 / RFU, WDR75 / Fold change vs veh, WDR75 / RFU, AHCTF1 / Fold change vs veh, AHCTF1 / RFU, TFRC / Fold change vs veh, TFRC / RFU, ZDHHC17 / Fold change vs veh, ZDHHC17 / RFU, NOM1 / Fold change vs veh, NOM1 / RFU, ARL8B / Fold change vs veh, ARL8B / RFU, ZBTB11 / Fold change vs veh, ZBTB11 / RFU, TAMM41 / Fold change vs veh, TAMM41 / RFU, KIAA1704 /// LOC100996395 / Fold change vs veh, KIAA1704 /// LOC100996395 / RFU, ING1 / Fold change vs veh, ING1 / RFU, TRMT61B / Fold change vs veh, TRMT61B / RFU, FUBP3 / Fold change vs veh, FUBP3 / RFU, TP53 / Fold change vs veh, TP53 / RFU, TNKS2 / Fold change vs veh, TNKS2 / RFU, ZFP14 / Fold change vs veh, ZFP14 / RFU, ACTR2 / Fold change vs veh, ACTR2 / RFU, PPP3R1 / Fold change vs veh, PPP3R1 / RFU, PIK3R1 / Fold change vs veh, PIK3R1 / RFU, HNRNPA1 / Fold change vs veh, HNRNPA1 / RFU, RNF170 / Fold change vs veh, RNF170 / RFU, ZNF28 / Fold change vs veh, ZNF28 / RFU, RNGTT / Fold change vs veh, RNGTT / RFU, OGT / Fold change vs veh, OGT / RFU, BRD1 / Fold change vs veh, BRD1 / RFU, MARS / Fold change vs veh, MARS / RFU, ZNF655 / Fold change vs veh, ZNF655 / RFU, FAHD1 / Fold change vs veh, FAHD1 / RFU, BDP1 / Fold change vs veh, BDP1 / RFU, LRRCC1 / Fold change vs veh, LRRCC1 / RFU, ARID1A / Fold change vs veh, ARID1A / RFU, ZNF146 / Fold change vs veh, ZNF146 / RFU, ZNF330 / Fold change vs veh, ZNF330 / RFU, GPN3 / Fold change vs veh, GPN3 / RFU, C9orf123 / Fold change vs veh, C9orf123 / RFU, N4BP2L2 / Fold change vs veh, N4BP2L2 / RFU, ARFIP1 / Fold change vs veh, ARFIP1 / RFU, FAM179B / Fold change vs veh, FAM179B / RFU, BCL10 / Fold change vs veh, BCL10 / RFU, UHRF1BP1L / Fold change vs veh, UHRF1BP1L / RFU, BET1 / Fold change vs veh, BET1 / RFU, CNOT2 / Fold change vs veh, CNOT2 / RFU, ZNF268 / Fold change vs veh, ZNF268 / Fold change vs veh, ZNF507 / RFU, DGCR2 / Fold change vs veh, DGCR2 / RFU, WDSUB1 / Fold change vs veh, WDSUB1 / Fold change vs veh, HSP90B1 /// MIR3652 / RFU, ADSS / Fold change vs veh, ADSS / RFU, GK / Fold change vs veh, GK / RFU, ZNF148 / Fold change vs veh, ZNF148 / RFU, TAF9 / Fold change vs veh, TAF9 / RFU, SLC1A5 / Fold change vs veh, SLC1A5 / RFU, SLMO2 / Fold change vs veh, SLMO2 / RFU, ABCC4 / Fold change vs veh, ABCC4 / RFU, LOC101060439 /// RAP1B / Fold change vs veh, LOC101060439 /// RAP1B / RFU, RFX7 / Fold change vs veh, RFX7 / RFU, GTPBP10 / Fold change vs veh, GTPBP10 / RFU, CNEP1R1 / Fold change vs veh, CNEP1R1 / RFU, BIVM-ERCC5 /// ERCC5 / Fold change vs veh, BIVM-ERCC5 /// ERCC5 / RFU, ILF3 / Fold change vs veh, ILF3 / RFU 11762660_at / Fold change /veh 11762660_at / RFU VCAN (11757783_s_at) / Fold change /veh VCAN (11757783_s_at) / RFU DDX43 (11728927_at) / Fold change /veh DDX43 (11728927_at) / RFU KRT8 (11758188_x_at) / Fold change /veh KRT8 (11758188_x_at) / RFU NKD1 (11759106_at) / Fold change /veh NKD1 (11759106_at) / RFU SRD5A1 (11742802_a_at) / Fold change /veh SRD5A1 (11742802_a_at) / RFU TPSAB1 /// TPSB2 (11721975_s_at) / Fold change /veh TPSAB1 /// TPSB2 (11721975_s_at) / RFU GSTM3 (11746129_a_at) / Fold change /veh GSTM3 (11746129_a_at) / RFU IL23R (11737362_x_at) / Fold change /veh IL23R (11737362_x_at) / RFU TMEM51 (11727254_a_at) / Fold change /veh TMEM51 (11727254_a_at) / RFU PIWIL2 (11732686_x_at) / Fold change /veh PIWIL2 (11732686_x_at) / RFU ORM1 (11744905_x_at) / Fold change /veh ORM1 (11744905_x_at) / RFU CCDC152 (11743942_at) / Fold change /veh CCDC152 (11743942_at) / RFU ECM1 (11717891_a_at) / Fold change /veh ECM1 (11717891_a_at) / RFU IL23R (11748794_a_at) / Fold change /veh IL23R (11748794_a_at) / RFU TNFAIP8L3 (11732012_x_at) / Fold change /veh TNFAIP8L3 (11732012_x_at) / RFU MBOAT4 (11741988_at) / Fold change /veh MBOAT4 (11741988_at) / RFU 11764193_at / Fold change /veh 11764193_at / RFU TMEM53 (11763286_at) / Fold change /veh TMEM53 (11763286_at) / RFU MAGEB2 (11727129_at) / Fold change /veh MAGEB2 (11727129_at) / RFU TMEM200A (11744735_a_at) / Fold change /veh TMEM200A (11744735_a_at) / RFU CCDC152 (11751479_a_at) / Fold change /veh CCDC152 (11751479_a_at) / RFU FAM211A (11726209_a_at) / Fold change /veh FAM211A (11726209_a_at) / RFU RGS16 (11746705_a_at) / Fold change /veh RGS16 (11746705_a_at) / RFU VCAN (11755009_s_at) / Fold change /veh VCAN (11755009_s_at) / RFU RHOB (11743442_s_at) / Fold change /veh RHOB (11743442_s_at) / RFU RGS16 (11720943_a_at) / Fold change /veh RGS16 (11720943_a_at) / RFU RGS16 (11720944_at) / Fold change /veh RGS16 (11720944_at) / RFU, VPS4B / Fold change vs veh, VPS4B / RFU, CREB1 / Fold change vs veh, CREB1 / RFU, DNAJC13 / Fold change vs veh, DNAJC13 / RFU, GNAQ / Fold change vs veh, GNAQ / RFU, CDK5R1 / Fold change vs veh, CDK5R1 / RFU, ZRANB3 / Fold change vs veh, ZRANB3 / RFU, CUL4A / Fold change vs veh, CUL4A / RFU, CCNY / Fold change vs veh, CCNY / RFU, UFL1 / Fold change vs veh, UFL1 / RFU, COG3 / Fold change vs veh, COG3 / RFU, DIAPH2 / Fold change vs veh, DIAPH2 / RFU, SKA2 / Fold change vs veh, SKA2 / RFU, AFF3 / Fold change vs veh, AFF3 / RFU, LMF1 / Fold change vs veh, LMF1 / RFU, IPO11 / Fold change vs veh, IPO11 / RFU, DFFB / Fold change vs veh, DFFB / RFU, FOXP1 / Fold change vs veh, FOXP1 / RFU, CARD8 / Fold change vs veh, CARD8 / RFU, STRN3 / Fold change vs veh, STRN3 / RFU, ADK / Fold change vs veh, ADK / RFU, RASSF2 / Fold change vs veh, RASSF2 / RFU, WIPF1 / Fold change vs veh, WIPF1 / RFU, LARP1B / Fold change vs veh, LARP1B / RFU, RASA1 / Fold change vs veh, RASA1 / RFU, RB1 / Fold change vs veh, RB1 / RFU, PPFIA1 / Fold change vs veh, PPFIA1 / RFU, MAT2A / Fold change vs veh, MAT2A / RFU, CCT5 / Fold change vs veh, CCT5 / RFU, WDR92 / Fold change vs veh, WDR92 / RFU, CUX1 / Fold change vs veh, CUX1 / RFU, TTC7A / Fold change vs veh, TTC7A / RFU, TMEM135 / Fold change vs veh, TMEM135 / RFU, DEPTOR / Fold change vs veh, DEPTOR / RFU, CPM / Fold change vs veh, CPM / RFU, DNAJB6 / Fold change vs veh, DNAJB6 / RFU, CACNA2D3 / Fold change vs veh, CACNA2D3 / RFU, DTX4 / Fold change vs veh, DTX4 / RFU, TFCP2 / Fold change vs veh, TFCP2 / RFU, GMCL1 /// GMCL1P1 / Fold change vs veh, GMCL1 /// GMCL1P1 / RFU, AEBP2 / Fold change vs veh, AEBP2 / RFU, SNHG1 /// SNORD22 /// SNORD25 /// SNORD26 /// SNORD27 /// SNORD28 /// SNORD29 /// SNORD31 / Fold change vs veh, SNHG1 /// SNORD22 /// SNORD25 /// SNORD26 /// SNORD27 /// SNORD28 /// SNORD29 /// SNORD31 / Fold change (Aza/veh), C12orf56 (ProbeSet 11735607_a_at) / Fold change (ACY-1035/veh), C12orf56 (ProbeSet 11735607_a_at) / Fold change (Aza/veh), FGFR1OP (ProbeSet 11751329_s_at) / Fold change (ACY-1035/veh), FGFR1OP (ProbeSet 11751329_s_at) / Fold change (Aza/veh), VPS36 (ProbeSet 11739960_a_at) / Fold change (ACY-1035/veh), VPS36 (ProbeSet 11739960_a_at) / RFU SYPL1 (11715823_x_at) / Fold change /veh SYPL1 (11715823_x_at) / RFU IGFBP7 (11715501_s_at) / Fold change /veh IGFBP7 (11715501_s_at) / RFU REEP3 (11722064_at) / Fold change /veh REEP3 (11722064_at) / RFU IGLL1 (11728026_x_at) / Fold change /veh IGLL1 (11728026_x_at): dose or concentration left out as unconfirmed
Conditions: ProbeSet 11718569_a_at; LIST D

`Nc1ccc(-c2cccs2)cc1NC(=O)c1ccc2c(c1)cc(C1CC1)n2CCN1CCOCC1` [ACY-1035] was tested, and the “Fold change vs veh, WIPF1” value was 0.95.
